These results are taken from patent US5594157A, “Process for making taxol derivatives” (Abbott Laboratories, priority 1995, dated 1997).

In brackets after ≈: the same amount, converted by molar mass.

Test [1] concerns advanced breast and ovarian cancers. As to conditions: cited from earlier work.
The subject of the next test is other tumor types. As to conditions: preliminary investigations; cited from earlier work.
For a further test, the system named is A549. The test can be described thus: In vitro tumor cell cytotoxicity, three day MTT microtiter assay (A549). The test is classed as cell-based, human. As to conditions: Homo sapiens, 72 h; A549; 3 days, MTT, absorbance at 570 nm; read-out: In vitro tumor cell cytotoxicity (IC50). As to the method: (§1) A three day microtiter assay was used to measure the growth inhibition of cultured cells exposed to a range of drug concentrations. Metabolic activity was measured by the cells' ability to reduce the tetrazolium dye, MTT (3-(4,5-dimethylthiazol-2-yl-2,5-diphenyltetrazolium bromide) to a quantifiable colored end product, which absorbs at 570 nm in the visible spectrum. Surviving cells reduce the MTT dye.
(§2) Test compounds were dissolved in dimethyl sulfoxide (DMSO) and diluted, first with Earle's Balanced Salt Solution, followed by culture medium, to twice the highest concentration of compound to be tested. From this concentrated stock, two-fold serial dilutions were prepared in 96-well microtiter trays, each well containing twice the desired final concentration of compound. Each concentration was tested in triplicate and compared to triplicate drug-free controls.
(§3) The cells were grown in the same medium used for diluting the compounds and then harvested using trypsinization. This involved removing the medium by aspiration; rinsing the cell monolayer twice with Earle's Balanced Salt Solution; adding trypsin (0.05%)/EDTA (0.53 mM; for each 25 cm^2, approximately 0.2 mL), tilting to cover the monolayer, and then withdrawing trypsin leaving only a thin film of solution; incubating at room temperature until the cell monolayers detached (as determined by visual and/or microscopic observation); adding medium contaiing fetal calf serum to stop the action of the trypsin and resuspend the cells; triturating to aid dissociation of cell clumps; and determining the number of cells per milliliter by electronic cell counter (e.g. Coulter Counter) or by mixing an aliquot of cell suspension with Trypan Blue (0.4% in normal saline) and counting the viable cells using a hemacytometer.
(§4) After harvesting and determination of viable cell counts, cell density was adjusted to 25,000 cells/mL. Inoculum (0.1 mL) containing the cells was then added to each well for a final concentration of 2,500 cells per well. Addition of the inoculum diluted the test compounds to the desired final concentration.
(§5) Microtiter trays were then incubated for three days at 36° C. in a humidified atmosphere containing 5% carbon dioxide. After three days, 20 microtiters of 5 mg/mL MTT in phosphate-buffered saline solution were added to each well. Trays were returned to the incubator for two to four hours to allow the surviving cells to reduce the dye. Medium and unreduced dye were removed by aspiration. DMSO was added to each well to dissolve the water-insoluble, colored end product of the dye reduction so that it could be measured spectrophotometrically at 570 nm.

The next test relates to P-388. The test can be described thus: In vitro tumor cell cytotoxicity, three day MTT microtiter assay (P-388). In kind it is cell-based, mouse. As to conditions: P388, 72 h; P-388 (mouse leukemia); 3 days, MTT, absorbance at 570 nm; read-out: In vitro tumor cell cytotoxicity (IC50). As to the method:
as §1, §2, §3, §4, §5

Consider `CC(=O)O[C@H]1C(=O)[C@@]2(C)[C@H]([C@H](OC(=O)c3ccccc3)[C@]3(O)C[C@H](OC(=O)[C@H](O)[C@@H](NC(=O)c4ccccc4)c4ccccc4)C(C)=C1C3(C)C)[C@]1(OC(C)=O)CO[C@@H]1C[C@@H]2O` [Taxol], for which the “effectiveness in clinical trials” value in test [1] is “effective against advanced breast and ovarian cancers in clinical trials”. In addition, the “activity against other tumor types” value in the test with other tumor types was “promising activity against a number of other tumor types”.

A word on the IC50: it is the point on the concentration scale where inhibition reaches its midpoint. On to `CC(=O)O[C@@H]1C2=C(C)[C@@H](OC(=O)[C@H](O)[C@@H](NC(=O)CC(C)(C)C)c3ccccc3)C[C@@](O)([C@@H](OC(=O)c3ccccc3)[C@@H]3[C@]4(OC(C)=O)CO[C@@H]4C[C@H](O)[C@@]3(C)[C@H]1O)C2(C)C` [Example 22, N-Debenzoyl-N-t-butylacetyl-9-dihydrotaxol], for which the IC50 turned out to be 0.027 µg/mL (≈ 0.0318 µM) in the test on A549 and 0.052 µg/mL (≈ 0.0612 µM) in the test on P-388.

In the case of `CC(=O)N[C@@H](c1ccccc1)[C@@H](O)C(=O)O[C@H]1C[C@@]2(O)[C@@H](OC(=O)c3ccccc3)[C@@H]3[C@]4(OC(C)=O)CO[C@@H]4C[C@H](O)[C@@]3(C)[C@@H](O)[C@H](OC(C)=O)C(=C1C)C2(C)C` [Example 29, N-Debenzoyl-N-acetyl-9-dihydrotaxol], the results for the IC50 in the test on A549 and in the test on P-388 were 2.1 µg/mL (≈ 2.65 µM) and 2.02 µg/mL (≈ 2.54 µM), respectively.
